Test results: paper PMC9575645 (Signal Transduction and Targeted Therapy, 2022)

Assays:
HSL phosphorylation [1] = experiment: HSL phosphorylation by western blot in IAV-infected A549 cells; type: cell-based, human; conditions: 5 μM or 50 μM
HSL phosphorylation [2] = experiment: HSL phosphorylation by western blot in SARS-CoV-2-infected Vero E6 cells; type: cell-based, African green monkey; conditions: 5 μM or 50 μM
[3] = tested on: Influenza A virus (H1N1) (PR8); conditions: IAV; FFA-deprived condition in lipase inhibitor-treated cells; 100 µM
SARS-CoV-2 (KCDC03) = experiment: In vitro antiviral activity against SARS-CoV-2 in Vero E6 cells (CCIF viral yield, RT-qPCR); type: cell-based; conditions: SARS-CoV-2; FFA-deprived condition in lipase inhibitor-treated cells; 100 µM
[4] = In vivo toxicity in hamsters (body weight, gross and histopathological organ changes); conditions: 80 mg kg^-1 d^-1 atglistatin and 2.5 mg kg^-1 d^-1 remdesivir, singly or in combination
Procedure: Three groups of 3 hamsters were treated intraperitoneally with 20, 40, and 80 mg kg^-1 d^-1 of atglistatin prepared in a 100 μL vehicle [50% PEG400 in water (vol/vol)] Bid with a 12 h interval for four and a half consecutive days, respectively (Table S10). One group of 3 control anesthetized hamsters was administered intraperitoneally with 100 μL vehicle Bid with a 12 h interval for four and a half consecutive days (Table S10).
Histopathological changes in lungs, liver, kidney, heart, and spleen from the experimental mice or hamsters in each experimental group were determined as described elsewhere.^35 Briefly, each sample from the mice or hamsters in each experimental group was fixed in sufficient 10% neutral formalin at 20°C for 3-4 days, washed in tap water, then trimmed, and thereafter processed in the automatic embedding machine for the dehydration and paraffin embedment. Tissue sections, prepared on slides at a thickness of 3 μm by a microtome, were used for hematoxylin and eosin (H&E) staining or IHC as described below. H&E stained sections were observed under light microscopy. The morphological changes to lung, liver, kidney, heart, and spleen tissues were reviewed in a blinded manner as previous described.^35

## O=S(=O)(NCCNC/C=C/c1ccc(Br)cc1)c1cccc2cnccc12 [H89]
HSL phosphorylation [1]
  viral-mediated HSL phosphorylation: prevented viral-mediated HSL phosphorylation
HSL phosphorylation [2]
  viral-mediated HSL phosphorylation: prevented viral-mediated HSL phosphorylation

## CCCCC/C=C\C/C=C\CCCCCCCC(=O)O [LA, linoleic acid]
[3]
  virus replication on FFA supplementation: rescue of replication
SARS-CoV-2 (KCDC03)
  virus replication on FFA supplementation: rescue of replication

## CCCCCCCC/C=C\CCCCCCCC(=O)O [OA, oleic acid]
[3]
  virus replication on FFA supplementation: rescue of replication
SARS-CoV-2 (KCDC03)
  virus replication on FFA supplementation: rescue of replication

## CCCCCCCCCCCCCCCC(=O)O [PA, palmitic acid]
[3]
  virus replication on FFA supplementation: rescue of replication
SARS-CoV-2 (KCDC03)
  virus replication on FFA supplementation: rescue of replication

## CCC(CC)COC(=O)[C@H](C)N[P@](=O)(OC[C@H]1O[C@@](C#N)(c2ccc3c(N)ncnn23)[C@H](O)[C@@H]1O)Oc1ccccc1 [remdesivir]
[4]
  toxicity, including body weight loss: no toxicity
